In patent US20240082228A1, “SARS-COV-2 THERAPEUTICS” (priority 2021, published 2024):
Values joined by “and” are separate entries in the source; they are usually repeats but may differ in a detail not shown here. Equal values may be shown once. Read-outs that look alike come from different tables or passages of the source.

What was measured:
SARS-CoV-2 [1] = format: cell-based; details: HEK293T cells stably expressing ACE2
HEK293T-ACE2 cells = details: up to 10 mM compound
[2] = target: benzodiazepine binding site of human GABAA receptors containing either an α1, α2, α3 or α5 subunit; details: read-out: affinity; cited from earlier work
GABAA receptors = details: cited from earlier work
[3] = for Average Cell Number (1 uM) / Cell Number (1 uM) / Normalized Cell Number (1 uM): compound at 1 uM; for Average Cell Number (1 uM) / Average Cell Number (5 uM): average of normalized cell number, n=3, relative to DMSO; for Cell Number (1 uM) / Normalized Cell Number (1 uM) / Cell Number (5 uM) / Normalized Cell Number (5 uM): single replicate; for Cell Number (1 uM) / Cell Number (5 uM): raw cell count; for Normalized Cell Number (1 uM) / Normalized Cell Number (5 uM): relative to negative control DMSO; for Average Cell Number (5 uM) / Cell Number (5 uM) / Normalized Cell Number (5 uM): compound at 5 uM
SARS-CoV-2 [4] = assay: microbe, parasite or virus in culture; format: cell-based; details: for activity at 5 µM: Severe acute respiratory syndrome coronavirus 2, 5 uM, read-out: Normalized Infection (5 uM); for HIT: overall, 1 or 5 uM; for activity at 1 µM: Severe acute respiratory syndrome coronavirus 2, 1 uM, read-out: Normalized Infection (1 uM)
[5] = 1 uM, average log2FC infection (n=3) relative to DMSO
[6] = 5 uM, average log2FC infection (n=3) relative to DMSO
[7] = single replicate, relative to negative control DMSO
[8] = 1 uM, single replicate, relative to negative control DMSO
[9] = 5 uM, single replicate, relative to negative control DMSO

Row | Compound | Toxic (1 uM) [3] | Average Cell Number (1 uM) [3] | Cell Number (1 uM) [3] | Normalized Cell Number (1 uM) [3] | Average Cell Number (5 uM) [3] | Cell Number (5 uM) [3] | Normalized Cell Number (5 uM) [3] | HIT (2 Std, 1 uM) (SARS-CoV-2 [4]; 1 uM) | Average Infection (1 uM) (SARS-CoV-2 [4]; [5]) | Average Infection (5 uM) (SARS-CoV-2 [4]; [6]) | HIT (SARS-CoV-2 [4]) | activity at 1 µM (SARS-CoV-2 [4]; [7]) [%] | Toxic (5 uM) [3] | also measured
1 | CN[C@@H](C)C(=O)N[C@H]1CCS[C@H]2CC(C)(C)[C@@H](C(=O)N[C@H]3c4ccccc4C[C@H]3OCC#CC#CCO[C@@H]3Cc4ccccc4[C@@H]3NC(=O)[C@H]3N4C(=O)[C@@H](NC(=O)[C@H](C)NC)CCS[C@H]4CC3(C)C)N2C1=O [Ciapavir] | – | – | – | – | – | – | – | – | – | – | – | – | – | antiviral activity (SARS-CoV-2 [1]): excellent activity; cytotoxicity (HEK293T-ACE2 cells): no observable cytotoxicity
2 | CC(C)CCC(=O)CC1c2ccccc2C(=O)N1c1ccc2ccc(Cl)nc2n1 (stereo not shown) [Pagoclone] | – | – | – | – | – | – | – | – | – | – | – | – | – | Ki [2]: 0.7 to 9.1 nM; efficacy at α1-, α2- and α5-containing GABAA receptors (GABAA receptors; α1-, α2- and α5-containing): partial agonist; efficacy at receptors containing an α3 subunit (GABAA receptors; α3 subunit): full agonist
3 | CN[C@@H](C)C(=O)N[C@H](C(=O)N1CCC[C@H]1C(=O)N[C@H]1c2ccccc2C[C@H]1OCC#CC#CCO[C@@H]1Cc2ccccc2[C@@H]1NC(=O)[C@@H]1CCCN1C(=O)[C@@H](NC(=O)[C@H](C)NC)C1CCCCC1)C1CCCCC1 [AZD5582] | – | – | – | – | – | – | – | – | – | – | – | – | – | antiviral activity (SARS-CoV-2 [1]): excellent activity; cytotoxicity (HEK293T-ACE2 cells): no observable cytotoxicity
4 | Nc1cc(C(F)(F)F)c(-c2nc(N3CCOCC3)nc(N3CCOCC3)n2)cn1 [Bimiralisib, bimiralisib] | 0 (non-toxic (Normalized Cell number>0.65) | 0.6927 | 3839 and 4405 and 3934 | 0.6551 and 0.7517 and 0.6713 | 0.4637 | 2795 and 2791 and 2658 | 0.4716 and 0.471 and 0.4485 | HIT | −1.45 | −4.123 | Yes | – | – | HIT (2 Stdv, 5 uM) (SARS-CoV-2 [4]; 5 uM): HIT; activity at 5 µM (SARS-CoV-2 [4]; [7]): 5.11%
5 | CC1(N)CCN(c2cccnc2NC(=O)c2nc(-c3ncccc3C(F)(F)F)cnc2N)CC1 [LXS-196, lxs196] | 0 (non-toxic (Normalized Cell number>0.65) | 0.9125 | 5737 and 5507 and 4798 | 0.979 and 0.9398 and 0.8188 | 0.5379 | – | – | HIT | −2.123 | −6.497 | Yes | 31 | – | HIT (2 Stdv, 5 uM) (SARS-CoV-2 [4]; 5 uM): HIT
6 | CC(C(=O)O)c1ccc(C(=O)c2ccccc2)s1 (stereo not shown) [Tiaprofenic Acid, tiaprofenic acid] | 0 (non-toxic (Normalized Cell number>0.65) | 0.8638 | 5511 and 5420 and 4255 | 0.9404 and 0.9249 and 0.7261 | 0.9679 | 6146 and 5679 and 5383 | 1.037 and 0.9583 and 0.9083 | HIT | −0.4462 | −0.06461 | Yes | 71.2 | 0 (non-toxic (Normalized Cell number>0.65) | –
7 | Cc1cncc(CN2CCC(=C3c4ccc(Cl)cc4CCc4cccnc43)CC2)c1 [Rupatadine, rupatadine] | 0 (non-toxic (Normalized Cell number>0.65) | 0.795 | 4468 and 4936 and 4572 | 0.7625 and 0.8423 and 0.7802 | 0.9184 | 5730 and 5462 and 5136 | 0.9669 and 0.9217 and 0.8667 | HIT | – | – | Yes | 51.5 | 0 (non-toxic (Normalized Cell number>0.65) | Average Infection (1 uM) (SARS-CoV-2 [4]): −0.7916; Average Infection (5 uM) (SARS-CoV-2 [4]): −0.09608; activity at 5 µM (SARS-CoV-2 [4]; [7]): 88.1%
8 | cefonicid | 0 (non-toxic (Normalized Cell number>0.65) | 0.9122 | 5339 and 5337 and 5361 | 0.9111 and 0.9108 and 0.9148 | 0.9876 | 5781 (2×) and 5996 | 0.9755 (2×) and 1.012 | HIT | – | – | Yes | – | 0 (non-toxic (Normalized Cell number>0.65) | Average Infection (1 uM) (SARS-CoV-2 [4]): −0.4929; Average Infection (5 uM) (SARS-CoV-2 [4]): 0.04523; % Infection (1 uM) (SARS-CoV-2 [4]; 1 uM, single replicate of triplicate): 19.07% and 19.19% and 17.78%; Normalized Infection (1 uM) (SARS-CoV-2 [4]; [8]): 0.7259 and 0.7305 and 0.6768; log2FC Infection (1 uM) (SARS-CoV-2 [4]; [8]): −0.4622 and −0.4531 and −0.5633; % Infection (5 uM) (SARS-CoV-2 [4]; 5 uM, single replicate of triplicate): 16.97% and 13.67% and 17.29%; Normalized Infection (5 uM) (SARS-CoV-2 [4]; [9]): 1.102 and 0.8875 and 1.123; log2FC Infection (5 uM) (SARS-CoV-2 [4]; [9]): 0.1402 and −0.1722 and 0.1676
